Read-outs that look alike come from different tables or passages of the source.
Legend:
Assay type in all cases: biochemical
Sirt5 = molecular target: T1, Sirt5 (Homo sapiens, UniProt Q9NXA8); assay: Fluor-de-Lys peptide deacetylation assay, Sirt5
T1 construct: Sirt5 residues 34-302; His-tag with linker comprising a TEV protease cleavage site (N); made in house
T1 sequence (Q9NXA8 34-302): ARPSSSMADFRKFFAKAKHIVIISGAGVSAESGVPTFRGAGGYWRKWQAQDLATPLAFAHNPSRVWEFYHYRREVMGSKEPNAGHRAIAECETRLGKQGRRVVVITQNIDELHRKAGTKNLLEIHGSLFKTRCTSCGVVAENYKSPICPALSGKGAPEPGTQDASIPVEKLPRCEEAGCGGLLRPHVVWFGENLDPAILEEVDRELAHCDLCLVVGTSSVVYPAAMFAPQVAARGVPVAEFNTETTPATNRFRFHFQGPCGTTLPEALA
Protocol: (§1) Sirt3 was expressed in E. coli and purified via Ni-NTA and size exclusion chromatography as described elsewhere, and Sirt5 according to the protocol of Schuetz et al.. […] The protein was bound to the HiTrapQ column in buffer A and eluted in a gradient to buffer A supplemented with 400 mM KCl. Fractions were analyzed by SDS-PAGE, and the Sirt1 fractions were pooled and transferred into buffer A using a NAP column (GE Healthcare).
(§2) The commercial Fluor-de-Lys (FdL) assay kits 1 and 2 (Biomol, Plymouth Meeting, USA) were used to test the deacetylase activity of the four Sirtuins. In both kits the substrate derived from p53 is composed of three amino acids, the acetyl lysine and a C-terminally attached fluorophor. For Sirt2 and 3, FdL-2 peptide (QPK(acetyl-K)) was used, and FdL-1 peptide (RHK(acetyl-K)) for Sirt5 and Sirt6. All tests were done with 0.1 mM of the respective FdL peptide and 0.5 mM NAD^+ as substrates.
(§3) NCI compound stocks were prepared by dissolving them in DMSO at a concentration of 5 mM. The initial screens with all 40 compounds contained 5 μl Sirtuin solution (Sirt2/3 0.1 mg/ml stock concentration; Sirt5/6 1 mg/ml), 1 μl of compound stock (resulting in a 100 μM end concentration), 15 μl FdL substrate, and assay buffer (supplied in the assay kit) to a total volume of 50 μl. As control reactions, peptide with either the compound (without Sirtuin) or with Sirtuin and DMSO instead of compound were measured. After starting the reactions by adding the FdL substrate, assays were incubated for 30 min at 37 °C. Subsequently, 50 μl of a 10 mg/ml trypsin stock (“Developer solution”) were added and the reactions were incubated for 45 min at room temperature. Fluorescence values were measured in a fluorometric plate reader with excitation at 360 nm and read out at 485 nm. Values were then corrected with the control reaction (same compound, but without Sirtuin).
(§4) All measurements shown are averages of duplicates (screen) or triplicates (dose-response curves), and representatives of at least two independent replications. Error bars indicate standard deviations.

Sirt6 = molecular target: T2, Sirt6 (Homo sapiens, UniProt Q8N6T7); assay: Fluor-de-Lys peptide deacetylation assay, Sirt6
T2 construct: Sirt6 residues 13-308; His-tag with linker comprising a TEV protease cleavage site (N, cleaved yes); made in house; host or cells: E. coli Rosetta2
Protocol: as §2, §3, §4

Sirt3 = molecular target: T3, Sirt3 (Homo sapiens, UniProt Q9NTG7); assay: Fluor-de-Lys peptide deacetylation assay, Sirt3
T3 construct: Sirt3 residues 114-399; His-tag with linker comprising a TEV protease cleavage site (N); made in house; host or cells: E. coli
T3 sequence (Q9NTG7 114-399): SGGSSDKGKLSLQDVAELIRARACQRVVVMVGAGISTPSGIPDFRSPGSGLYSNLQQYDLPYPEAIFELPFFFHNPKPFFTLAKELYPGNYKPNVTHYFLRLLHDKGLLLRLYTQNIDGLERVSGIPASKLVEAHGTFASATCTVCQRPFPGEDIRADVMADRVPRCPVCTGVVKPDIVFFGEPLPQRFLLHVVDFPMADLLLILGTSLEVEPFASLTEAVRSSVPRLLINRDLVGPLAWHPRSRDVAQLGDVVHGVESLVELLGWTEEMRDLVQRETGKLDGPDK
Protocol: as §1, §2, §3, §4

Sirt2 = molecular target: T4, Sirt2 (Homo sapiens, UniProt Q8IXJ6); assay: Fluor-de-Lys peptide deacetylation assay, Sirt2
T4 sequence (Q8IXJ6 34-356): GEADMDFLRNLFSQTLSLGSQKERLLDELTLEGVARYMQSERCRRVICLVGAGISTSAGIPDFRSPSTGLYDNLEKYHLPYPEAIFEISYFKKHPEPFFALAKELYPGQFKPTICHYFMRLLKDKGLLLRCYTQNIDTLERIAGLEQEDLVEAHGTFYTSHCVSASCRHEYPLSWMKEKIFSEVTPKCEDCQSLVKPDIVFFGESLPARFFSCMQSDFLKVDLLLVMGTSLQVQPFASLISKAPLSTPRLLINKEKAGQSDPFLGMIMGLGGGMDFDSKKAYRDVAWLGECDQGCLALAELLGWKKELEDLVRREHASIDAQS
Protocol: The Sirt2 construct was expressed in E. coli Rosetta2 cells (Merck) in LB/Ampicillin/Chloramphenicol medium. Cells were grown at 37 °C, and expression induced at an OD600 of 0.6-0.8 for 4 h with 0.5 mM IPTG. Harvested cells were resuspended in buffer A (50 mM Tris/HCl pH 7.8, 200 mM NaCl, 2 mM DTT), disrupted with a Sonifier, and cell debris removed by 40 min centrifugation at 4 °C, 18000 rpm in a HFA22.50 rotor. The supernatant was supplemented with 10 mM imidazole and incubated with Ni-NTA resin for 1 h at 4 °C. […] The protein was concentrated in an amicon unit (Millipore, Billerica, USA) and digested over night at 4 °C with TEV-protease. The protease was removed from cleaved Sirt2 by incubation with Ni-NTA resin for 1 h at 4 °C. The protein was concentrated, 1:5 diluted with 50 mM Tris/HCl, pH 7.8, and applied to a HiTrap Q anion exchange column (GE Healthcare) equilibrated with 50 mM Tris/HCl, pH 7.8, 50 mM NaCl, 2 mM DTT and eluted with a gradient (20 column volumes) to 50 mM Tris/HCl, pH 7.8, 1 M NaCl, 2 mM DTT. Sirt2 was then applied to a Superdex200 gel filtration column (GE Healthcare) equilibrated in 20 mM Tris/HCl, pH 7.8, 150 mM NaCl, 2 mM DTT. The eluted protein was analyzed by SDS-PAGE, re-concentrated, and shock-frozen in liquid nitrogen for storage at -80 °C.
as §2, §3, §4

[1] = 100 μM compound, 0.1 mM FdL-1 peptide, 0.5 mM NAD+
[2] = 100 μM compound, 0.1 mM FdL-2 peptide, 0.5 mM NAD+

T2 sequence (Q8N6T7 13-308): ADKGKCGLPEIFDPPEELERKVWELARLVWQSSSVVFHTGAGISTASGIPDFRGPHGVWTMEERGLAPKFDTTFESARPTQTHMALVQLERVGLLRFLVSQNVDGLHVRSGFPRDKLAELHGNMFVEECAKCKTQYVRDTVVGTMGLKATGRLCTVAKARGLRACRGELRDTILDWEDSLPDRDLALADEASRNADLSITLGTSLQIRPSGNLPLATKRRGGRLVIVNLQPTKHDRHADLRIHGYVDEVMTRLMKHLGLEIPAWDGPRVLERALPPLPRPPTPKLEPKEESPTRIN

Row | Structure (SMILES) | Effect on the activity of Sirt5 (Sirt5; [1]) | Effect on the activity of Sirt6 (Sirt6; [1]) | Effect on the activity of Sirt3 (Sirt3; [2]) | Effect on the activity of Sirt2 (Sirt2; [2]) | Effect on the activity of Sirt5 (Sirt5) | Effect on the activity of Sirt6 (Sirt6) | Effect on the activity of Sirt3 (Sirt3) | Effect on the activity of Sirt2 (Sirt2)
1 | Clc1ccc(-c2noc(CN3CCCCC3)n2)cc1 [CSC37, 1-((3-(4-chlorophenyl)-1,2,4-oxadiazol-5-yl)methyl)piperidine] | --- (no such effect) | --- (no such effect) | --- (no such effect) | inhibition (significant inhibitory effects (>25% loss of activity)) | – | – | – | –
2 | C[C@]12CC[C@H]3[C@@H](CCC4=CC(=O)CC[C@@H]43)[C@@H]1CCC2OC1(O)C(=O)c2ccccc2C1=O (stereo partly drawn) [CSC16, 2-hydroxy-2-((3-oxoestr-4-en-17-yl)oxy)-1H-indene-1,3(2H)-dione] | – | – | – | – | --- (key: inhibition: significant inhibitory effects (>25% loss of activity); ---: no such effect) | --- (key: inhibition: significant inhibitory effects (>25% loss of activity); ---: no such effect) | --- (key: inhibition: significant inhibitory effects (>25% loss of activity); ---: no such effect) | --- (key: inhibition: significant inhibitory effects (>25% loss of activity); ---: no such effect)
3 | Cc1nc2ccccc2nc1-c1ccc(/N=[N+](\[O-])c2ccc(-c3nc4ccccc4nc3C)cc2)cc1 [CSC15, 2-(4-(1-hydroxy-2-(4-(3-methyl-2-quinoxalinyl)phenyl)-1^5-diazenyl)phenyl)-3-methylquinoxaline] | --- (no such effect) | --- (no such effect) | --- (no such effect) | --- (no such effect) | – | – | – | –
4 | O=C1c2cc([N+](=O)[O-])ccc2-c2ccc3c4ccc5c6c(ccc(c7ccc1c2c73)c64)C(=O)c1cc([N+](=O)[O-])ccc1-5 [CSC14, 3,12bis(hydroxy(oxido)amino)anthra[9,1,2-cde]benzo[rst]pentaphene-5,10-dione, (Amanthrene Supra Black BBN)] | – | – | – | – | inhibition (key: inhibition: significant inhibitory effects (>25% loss of activity); ---: no such effect) | --- (key: inhibition: significant inhibitory effects (>25% loss of activity); ---: no such effect) | --- (key: inhibition: significant inhibitory effects (>25% loss of activity); ---: no such effect) | inhibition (key: inhibition: significant inhibitory effects (>25% loss of activity); ---: no such effect)
5 | Cc1ccc(C(=N)c2ccccc2Cc2cccc3ccccc23)c2ccccc12 [CSC24, (4-methyl-1-naphthyl)(2-(1-naphthylmethyl)phenyl)methanimine] | --- (no such effect) | --- (no such effect) | --- (no such effect) | inhibition (significant inhibitory effects (>25% loss of activity)) | – | – | – | –
6 | O=C1c2ccccc2C(=O)c2c1ccc(N1C(=O)c3ccccc3C1=O)c2-c1c(N2C(=O)c3ccccc3C2=O)ccc2c1C(=O)c1ccccc1C2=O [CSC27] | --- (no such effect) | inhibition (significant inhibitory effects (>25% loss of activity)) | --- (no such effect) | inhibition (significant inhibitory effects (>25% loss of activity)) | – | – | – | –
7 | O=C1c2ccccc2C(C2c3ccccc3C(=O)c3cc(Br)ccc32)c2ccc(Br)cc21 (stereo not drawn) [CSC19] | --- (no such effect) | --- (no such effect) | --- (no such effect) | --- (no such effect) | – | – | – | –
8 | S=C(Nc1ccc2c(c1)Cc1ccccc1-2)Nc1ccc2c(c1)Cc1ccccc1-2 [CSC7, N,N'-di(9H-fluoren-2-yl)thiourea] | --- (no such effect) | --- (no such effect) | --- (no such effect) | inhibition (significant inhibitory effects (>25% loss of activity)) | – | – | – | –
9 | c1ccc(CN2COc3c(ccc4c5c(ccc34)CN(Cc3ccccc3)CO5)C2)cc1 [CSC18] | --- (no such effect) | --- (no such effect) | --- (no such effect) | --- (no such effect) | – | – | – | –
10 | O=C1C2C(c3ccccc3)NC(c3ccccc3)C1C(c1ccccc1)NC2c1ccccc1 (stereo not drawn) [CSC29, 2,4,6,8-tetraphenyl-3,7-diazabicyclo[3.3.1]nonan-9-one] | --- (no such effect) | --- (no such effect) | --- (no such effect) | --- (no such effect) | – | – | – | –
11 | O=C1c2ccccc2C(=O)c2c(Nc3cc4c5c(ccc6c7ccc8c9c(cc(Nc%10cccc%11c%10C(=O)c%10ccccc%10C%11=O)c(c3c56)c97)-c3ccccc3C8=O)C(=O)c3ccccc3-4)cccc21 [CSC6, 16,17-bis((9,10-dioxo-9,10-dihydro-1-anthracenyl)amino)anthra[9,1,2-cde]benzo[rst]pentaphene-5,10-dione] | --- (no such effect) | inhibition (significant inhibitory effects (>25% loss of activity)) | --- (no such effect) | inhibition (significant inhibitory effects (>25% loss of activity)) | – | – | – | –
12 | c1ccc2c(c1)C(=Nc1ccc(N=C3c4ccccc4-c4ccccc43)cc1)c1ccccc1-2 [CSC2, N1,N4-di(9H-fluoren-9-ylidene)-1,4-benzenediamine] | --- (no such effect) | --- (no such effect) | --- (no such effect) | inhibition (significant inhibitory effects (>25% loss of activity)) | – | – | – | –

Reference: paper PMC3227451, “Structure-based development of novel sirtuin inhibitors” (Aging (Albany NY), 2011)
